Data reported in ChEMBL document CHEMBL3525964 (Drug Metab Dispos, 2012).

Experiments:
[1] = Total drug excretion in human treated with [14C}LY2452473 at 15 mg, po administered as single dose by HPLC analysis; format: ADME, organism-based; conditions: in vivo, read-out: Drug excretion
Plasma [2] = test: Drug level in human plasma treated with [14C}LY2452473 at 15 mg, po after 4 hrs administered as single dose by HPLC analysis relative to total radioactivity; format: ADME, organism-based; conditions: in vivo
Cytochrome P450 3A4 [3] = target: T1, Cytochrome P450 3A4 (Homo sapiens, UniProt P08684); test: Drug metabolism in human liver microsomes assessed as CYP3A4-mediated drug depletion in presence of CYP2D6 inhibitor quinidine by LC-MS/MS method; format: ADME
Cytochrome P450 2C19 [4] = target: T2, Cytochrome P450 2C19 (Homo sapiens, UniProt P33261); test: Intrinsic clearance assessed as human recombinant CYP2C19-mediated drug depletion per pmol protein by LC-MS/MS method; format: ADME; conditions: recombinant enzyme
Cytochrome P450 2C9 [5] = target: T3, Cytochrome P450 2C9 (Homo sapiens, UniProt P11712); test: Normalized intrinsic clearance assessed as human recombinant CYP2C9-mediated drug depletion per pmol protein by LC-MS/MS method; format: ADME; conditions: recombinant enzyme
Cytochrome P450 2C9 [6] = target: T3, Cytochrome P450 2C9; test: Fraction metabolized assessed as human recombinant CYP2C9-mediated drug depletion by LC-MS/MS method relative to total normalized intrinsic clearance; format: ADME; conditions: recombinant enzyme
Plasma [7] = test: Drug level in human plasma treated with [14C}LY2452473 at 15 mg, po after 1 hr administered as single dose by HPLC analysis; format: ADME, organism-based; conditions: in vivo
Cytochrome P450 2C19 [8] = target: T2, Cytochrome P450 2C19; test: Fraction metabolized assessed as human recombinant CYP2C19-mediated drug depletion by LC-MS/MS method relative to total normalized intrinsic clearance; format: ADME; conditions: recombinant enzyme
Homo sapiens [9] = test: Terminal half life in human at 15 mg, po administered as single dose by liquid scintillation counting method; format: ADME, organism-based; conditions: in vivo
[10] = Drug level in feces of human treated with [14C}LY2452473 at 15 mg, po administered as single dose by LC-MS/MS method; format: ADME, organism-based; conditions: in vivo
Plasma [11] = test: Drug level in plasma of human treated with [14C}LY2452473 at 15 mg, po administered as single dose by LC-MS/MS method; format: ADME, organism-based; conditions: in vivo
Homo sapiens [12] = test: Cmax in human at 15 mg, po administered as single dose by liquid scintillation counting method; format: ADME, organism-based; design: dose 15 mg, route oral; conditions: in vivo
Cytochrome P450 2D6 [13] = target: T4, Cytochrome P450 2D6 (Homo sapiens, UniProt P10635); test: Fraction metabolized assessed as human recombinant CYP2D6-mediated drug depletion by LC-MS/MS method relative to total normalized intrinsic clearance; format: ADME; conditions: recombinant enzyme
Plasma [14] = test: Drug level in human plasma treated with [14C}LY2452473 at 15 mg, po after 48 hrs administered as single dose by HPLC analysis; format: ADME, organism-based; conditions: in vivo
Homo sapiens [15] = test: AUC (0 to last) in human at 15 mg, po administered as single dose by liquid scintillation counting method; format: ADME, organism-based, Plasma; design: dose 15 mg, time 0 - last, route oral; conditions: in vivo
Cytochrome P450 2D6 [16] = target: T4, Cytochrome P450 2D6; test: Intrinsic clearance assessed as human recombinant CYP2D6-mediated drug depletion per pmol protein by LC-MS/MS method; format: ADME; conditions: recombinant enzyme
[17] = Drug level in urine of human treated with [14C}LY2452473 at 15 mg, po administered as single dose by LC-MS/MS method; format: ADME, organism-based; conditions: in vivo
Cytochrome P450 2C9 [18] = target: T3, Cytochrome P450 2C9; test: Drug metabolism in human liver microsomes assessed as CYP3A4-mediated drug depletion in presence of CYP2C9 inhibitor sulfaphenazole by LC-MS/MS method; format: ADME
Cytochrome P450 2C8 = target: T5, Cytochrome P450 2C8 (Homo sapiens, UniProt P10632); test: Drug metabolism assessed as human recombinant CYP2C8-mediated drug depletion by LC-MS/MS method; format: ADME; conditions: recombinant enzyme
T5 sequence (P10632 whole entry): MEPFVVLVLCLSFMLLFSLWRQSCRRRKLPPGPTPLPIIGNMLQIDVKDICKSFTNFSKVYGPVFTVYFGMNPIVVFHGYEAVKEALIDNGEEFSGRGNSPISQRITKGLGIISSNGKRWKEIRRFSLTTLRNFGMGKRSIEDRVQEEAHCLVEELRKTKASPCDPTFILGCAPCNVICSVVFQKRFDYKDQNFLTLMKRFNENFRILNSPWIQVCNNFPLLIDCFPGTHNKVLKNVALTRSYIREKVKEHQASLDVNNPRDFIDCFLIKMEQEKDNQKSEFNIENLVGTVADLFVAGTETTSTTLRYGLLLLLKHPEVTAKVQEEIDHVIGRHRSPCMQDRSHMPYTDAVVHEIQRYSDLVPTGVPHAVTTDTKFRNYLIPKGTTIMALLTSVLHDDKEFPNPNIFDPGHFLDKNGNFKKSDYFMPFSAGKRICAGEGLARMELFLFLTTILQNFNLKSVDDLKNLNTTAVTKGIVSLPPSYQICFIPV

Cytochrome P450 3A5 = Cytochrome P450 3A5 (Homo sapiens, UniProt P20815); test: Drug metabolism assessed as human recombinant CYP3A5-mediated drug depletion by LC-MS/MS method; format: ADME; conditions: recombinant enzyme
Cytochrome P450 2C19 [19] = target: T2, Cytochrome P450 2C19; test: Drug metabolism in human liver microsomes assessed as CYP3A4-mediated drug depletion in presence of CYP2C19 inhibitor modafinil by LC-MS/MS method; format: ADME
Cytochrome P450 2E1 = Cytochrome P450 2E1 (Homo sapiens, UniProt P05181); test: Drug metabolism assessed as human recombinant CYP2E1-mediated drug depletion by LC-MS/MS method; format: ADME; conditions: recombinant enzyme
Cytochrome P450 2C9 [20] = target: T3, Cytochrome P450 2C9; test: Intrinsic clearance assessed as human recombinant CYP2C9-mediated drug depletion per pmol protein by LC-MS/MS method; format: ADME; conditions: recombinant enzyme
Homo sapiens [21] = test: Tmax in human at 15 mg, po administered as single dose by liquid scintillation counting method; format: ADME, organism-based; conditions: in vivo
Cytochrome P450 3A4 [22] = target: T1, Cytochrome P450 3A4; test: Fraction metabolized assessed as human recombinant CYP3A4-mediated drug depletion by LC-MS/MS method relative to total normalized intrinsic clearance; format: ADME; conditions: recombinant enzyme
[23] = Drug excretion in feces of human treated with [14C}LY2452473 at 15 mg, po administered as single dose by HPLC analysis; format: ADME, organism-based; conditions: read-out: Drug excretion
Cytochrome P450 3A4 [24] = target: T1, Cytochrome P450 3A4; test: Normalized intrinsic clearance assessed as human recombinant CYP3A4-mediated drug depletion per pmol protein by LC-MS/MS method; format: ADME; conditions: recombinant enzyme
Plasma [25] = test: Drug level in human plasma treated with [14C}LY2452473 at 15 mg, po after 8 hrs administered as single dose by HPLC analysis; format: ADME, organism-based; conditions: in vivo
Cytochrome P450 2C19 [26] = target: T2, Cytochrome P450 2C19; test: Normalized intrinsic clearance assessed as human recombinant CYP2C19-mediated drug depletion per pmol protein by LC-MS/MS method; format: ADME; conditions: recombinant enzyme
Plasma [27] = test: Drug level in human plasma treated with [14C}LY2452473 at 15 mg, po after 4 hrs administered as single dose by HPLC analysis; format: ADME, organism-based; conditions: in vivo
Plasma [28] = test: Drug level in human plasma treated with [14C}LY2452473 at 15 mg, po after 24 hrs administered as single dose by HPLC analysis; format: ADME, organism-based; conditions: in vivo
Cytochrome P450 2D6 [29] = target: T4, Cytochrome P450 2D6; test: Normalized intrinsic clearance assessed as human recombinant CYP2D6-mediated drug depletion per pmol protein by LC-MS/MS method; format: ADME; conditions: recombinant enzyme
Homo sapiens [30] = test: Apparent volume of distribution during terminal phase in human at 15 mg, po administered as single dose by liquid scintillation counting method; format: ADME, organism-based; conditions: in vivo

T2 sequence (P33261 whole entry): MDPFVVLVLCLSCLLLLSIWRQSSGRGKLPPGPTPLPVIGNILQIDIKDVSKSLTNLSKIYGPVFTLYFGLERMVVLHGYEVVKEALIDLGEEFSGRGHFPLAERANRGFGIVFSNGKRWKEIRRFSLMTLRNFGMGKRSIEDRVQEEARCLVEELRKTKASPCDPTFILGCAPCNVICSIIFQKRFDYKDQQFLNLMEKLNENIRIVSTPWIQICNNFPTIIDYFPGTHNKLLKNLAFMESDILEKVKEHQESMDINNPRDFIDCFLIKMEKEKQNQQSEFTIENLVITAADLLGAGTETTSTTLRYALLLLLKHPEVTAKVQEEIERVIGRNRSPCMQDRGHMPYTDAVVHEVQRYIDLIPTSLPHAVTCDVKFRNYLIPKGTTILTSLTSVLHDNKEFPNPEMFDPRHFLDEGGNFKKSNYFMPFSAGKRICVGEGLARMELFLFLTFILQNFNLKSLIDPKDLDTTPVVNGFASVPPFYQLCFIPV
T4 sequence (P10635 whole entry): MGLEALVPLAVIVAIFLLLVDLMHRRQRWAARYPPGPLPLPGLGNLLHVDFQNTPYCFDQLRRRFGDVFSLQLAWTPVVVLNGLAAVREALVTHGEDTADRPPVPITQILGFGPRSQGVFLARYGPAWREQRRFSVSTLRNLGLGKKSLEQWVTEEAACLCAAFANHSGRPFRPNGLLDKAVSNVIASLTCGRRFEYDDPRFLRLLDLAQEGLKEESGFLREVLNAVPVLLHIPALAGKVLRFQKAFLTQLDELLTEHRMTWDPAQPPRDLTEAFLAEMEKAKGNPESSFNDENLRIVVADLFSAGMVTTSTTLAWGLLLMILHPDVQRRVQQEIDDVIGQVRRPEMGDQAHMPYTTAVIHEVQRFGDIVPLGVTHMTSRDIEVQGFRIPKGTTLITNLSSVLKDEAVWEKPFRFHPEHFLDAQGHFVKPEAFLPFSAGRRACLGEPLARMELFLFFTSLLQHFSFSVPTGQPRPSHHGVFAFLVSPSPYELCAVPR
T3 sequence (P11712 whole entry): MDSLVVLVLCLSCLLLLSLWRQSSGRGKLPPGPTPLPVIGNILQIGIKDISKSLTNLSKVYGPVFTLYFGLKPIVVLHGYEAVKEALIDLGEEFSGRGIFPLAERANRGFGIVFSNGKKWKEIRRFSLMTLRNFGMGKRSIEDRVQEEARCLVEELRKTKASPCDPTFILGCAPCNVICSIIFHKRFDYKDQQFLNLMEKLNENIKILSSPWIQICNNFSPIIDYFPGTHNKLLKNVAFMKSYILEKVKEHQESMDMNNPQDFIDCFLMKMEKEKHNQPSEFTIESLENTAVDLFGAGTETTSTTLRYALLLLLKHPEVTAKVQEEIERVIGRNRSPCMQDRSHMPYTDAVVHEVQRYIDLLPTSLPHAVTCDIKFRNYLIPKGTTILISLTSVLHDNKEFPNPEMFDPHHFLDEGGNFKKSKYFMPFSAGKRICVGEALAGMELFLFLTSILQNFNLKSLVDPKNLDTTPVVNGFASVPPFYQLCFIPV
T1 sequence (P08684 whole entry): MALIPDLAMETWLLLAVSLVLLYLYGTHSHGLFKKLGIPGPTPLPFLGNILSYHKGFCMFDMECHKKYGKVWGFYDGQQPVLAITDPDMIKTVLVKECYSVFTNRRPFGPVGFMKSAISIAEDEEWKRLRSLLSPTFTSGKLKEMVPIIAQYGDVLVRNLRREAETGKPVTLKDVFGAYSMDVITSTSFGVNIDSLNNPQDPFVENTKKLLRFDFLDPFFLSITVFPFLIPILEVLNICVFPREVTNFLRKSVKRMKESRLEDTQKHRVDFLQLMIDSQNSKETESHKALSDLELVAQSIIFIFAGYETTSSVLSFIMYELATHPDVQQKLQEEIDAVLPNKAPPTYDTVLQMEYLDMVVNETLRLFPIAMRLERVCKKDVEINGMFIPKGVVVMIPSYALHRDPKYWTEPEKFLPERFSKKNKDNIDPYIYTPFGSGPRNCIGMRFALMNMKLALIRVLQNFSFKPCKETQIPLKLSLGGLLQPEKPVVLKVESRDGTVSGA
Cytochrome P450 3A5, sequence (P20815 whole entry): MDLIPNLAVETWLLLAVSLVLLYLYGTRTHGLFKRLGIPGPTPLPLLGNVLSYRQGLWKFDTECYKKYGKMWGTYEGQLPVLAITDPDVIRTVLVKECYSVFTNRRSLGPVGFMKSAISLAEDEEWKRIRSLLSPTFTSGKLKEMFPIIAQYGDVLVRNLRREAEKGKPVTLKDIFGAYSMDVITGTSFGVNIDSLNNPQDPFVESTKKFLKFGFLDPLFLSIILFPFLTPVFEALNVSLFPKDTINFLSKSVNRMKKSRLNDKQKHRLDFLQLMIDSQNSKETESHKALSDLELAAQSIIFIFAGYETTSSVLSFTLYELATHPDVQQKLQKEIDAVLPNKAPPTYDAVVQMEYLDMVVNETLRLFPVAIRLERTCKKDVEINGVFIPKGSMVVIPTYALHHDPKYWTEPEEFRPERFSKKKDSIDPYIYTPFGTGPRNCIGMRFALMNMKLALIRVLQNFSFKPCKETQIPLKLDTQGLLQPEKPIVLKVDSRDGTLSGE
Cytochrome P450 2E1, sequence (P05181 whole entry): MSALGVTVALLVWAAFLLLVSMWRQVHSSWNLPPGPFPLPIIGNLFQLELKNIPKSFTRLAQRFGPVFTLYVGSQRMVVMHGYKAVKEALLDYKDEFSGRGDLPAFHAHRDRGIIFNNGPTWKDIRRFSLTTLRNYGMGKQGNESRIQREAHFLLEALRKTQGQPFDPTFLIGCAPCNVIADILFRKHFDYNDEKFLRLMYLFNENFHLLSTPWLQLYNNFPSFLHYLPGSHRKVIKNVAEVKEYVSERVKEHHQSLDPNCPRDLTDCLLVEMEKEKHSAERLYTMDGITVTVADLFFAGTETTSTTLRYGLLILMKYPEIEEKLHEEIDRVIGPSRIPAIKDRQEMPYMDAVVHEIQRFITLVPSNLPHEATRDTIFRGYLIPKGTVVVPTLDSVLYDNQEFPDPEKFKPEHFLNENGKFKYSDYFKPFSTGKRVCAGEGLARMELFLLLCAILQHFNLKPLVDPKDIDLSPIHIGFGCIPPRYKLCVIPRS

Question: What does the source list for CC(C)OC(=O)N[C@H]1Cc2c(n(Cc3ccccn3)c3ccc(C#N)cc23)C1 [LY2452473]?
Answer: dose excreted [1]: 1.84%; Drug uptake (Plasma [2]): 42.2%; Drug metabolism (Cytochrome P450 3A4 [3]): metabolite_not_detected; CL (Cytochrome P450 2C19 [4]): 0.3 µL/min; CL (Cytochrome P450 2C9 [5]): 10 µL/min; Fm (Cytochrome P450 2C9 [6]): 8.5%; Drug uptake (Plasma [7]): 74.5%; Fm (Cytochrome P450 2C19 [8]): 4.9%; beta t1/2 (Homo sapiens [9]): 27 h; Drug metabolism [10]: metabolite_detected; Drug metabolism (Plasma [11]): metabolite_detected; Cmax (Homo sapiens [12]): 91.5 ng/mL; Fm (Cytochrome P450 2D6 [13]): 2.6%; Drug uptake (Plasma [14]): 27.67%; AUClast (Homo sapiens [15]): 1310 ng·h/mL; CL (Cytochrome P450 2D6 [16]): 0.3 µL/min; Drug metabolism [17]: metabolite_detected; Drug metabolism (Cytochrome P450 2C9 [18]): metabolite_not_detected; Drug metabolism (Cytochrome P450 2C8): metabolite_not_detected; Drug metabolism (Cytochrome P450 3A5): metabolite_not_detected; Drug metabolism (Cytochrome P450 2C19 [19]): metabolite_not_detected; Drug metabolism (Cytochrome P450 2E1): metabolite_not_detected; CL (Cytochrome P450 2C9 [20]): 0.1 µL/min; Tmax (Homo sapiens [21]): 2 h; Fm (Cytochrome P450 3A4 [22]): 68%; dose excreted [23]: 1.84%; CL (Cytochrome P450 3A4 [24]): 80 µL/min; Drug uptake (Plasma [25]): 42.36%; CL (Cytochrome P450 2C19 [26]): 5.7 µL/min; Drug uptake (Plasma [27]): 66.33%; Drug uptake (Plasma [28]): 28.81%; CL (Cytochrome P450 2D6 [29]): 3 µL/min; Vz/F (Homo sapiens [30]): 444 L
